Reference: patent publication EP0689844A1, “Complexes of vinpocetine formed with cyclodextrins, process for their preparation and pharmaceutical compositions containing them” (TECNIMEDE-SOCIEDADE TECNICO-MEDICINAL, S.A., priority 1994, dated 1996)
Converted amounts (≈) assume the structure as drawn. Where two headings read alike, the source gives them in different places.

Assays:
[1] = solubility of vinpocetine in cyclodextrin solutions of different concentrations (phase solubility, HPLC); type: physicochemical; settings: aqueous cyclodextrin solution, 37 °C, aqueous with cosolvent or surfactant or cyclodextrin, thermodynamic from solid
Procedure: 10 mg of vinpocetine, cyclodextrin in different amounts and 10 ml of distilled water were charged into 20 ml test tubes. After closing, the tubes were agitated for 24 hours at 37°C, thereafter the samples were filtrated and the filtrates were analysed by HPLC (High Performance Liquid Chromatography) in 0.1N HCl solution.

[2] = cited from earlier work
[3] = p.o.; cited from earlier work

- solubility at 24 h ([1]; HP-β-cyd 25.0 mM in distilled water): 5.5 µg/mL (≈ 15.7 µM)
- solubility at 24 h ([1]; HP-β-cyd 50.0 mM in distilled water): 12.8 µg/mL (≈ 36.5 µM)
- solubility at 24 h ([1]; HP-β-cyd 100.0 mM in distilled water): 23.2 µg/mL (≈ 66.2 µM)
- solubility at 24 h ([1]; γ-cyd 12.5 mM in distilled water): 6.1 µg/mL (≈ 17.4 µM)
- solubility at 24 h ([1]; γ-cyd 25.0 mM in distilled water): 12 µg/mL (≈ 34.2 µM)
- solubility at 24 h ([1]; γ-cyd 50.0 mM in distilled water): 24.4 µg/mL (≈ 69.6 µM)
SMILES: CCOC(=O)C1=C[C@]2(CC)CCCN3CCc4c(n1c1ccccc41)[C@@H]32 [vinpocetine, eburnamenine-14-carboxylic acid ethyl ester]
- solubility ([2]; in ethanol and 0.1N HCl): dissolves well
- solubility ([2]; in water, ethyl ether and hexane): poorly soluble
- absolute bioavailability [3]: 6.7%
